Assay results as given in PubChem BioAssay AID248 (DTP/NCI, 2004).
Inconclusive results and toxic doses are left out. Cut-off read from the data, not from the text of the source: active = T/C of 150% or more; inactive = T/C below 125%.

System: L1210 leukemia ip in BDF1 mice, survival T/C
Assay: NCI In Vivo Anticancer Drug Screen. Data for tumor model L1210 Leukemia (intraperitoneal) in B6D2F1 (BDF1) mice
Conditions: endpoint: mean survival time, higher = longer survival
Summary of the method: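 Read-out is survival time, reported as the treated-group measurement over the vehicle-control measurement.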

[1] = dose: 100.0 mg/kg/injection, schedule: Q04DX003 (ip), vehicle: Klucel (hydroxypropylcellulose) (HPC)
[2] = dose: 200.0 mg/kg/injection, schedule: Q04DX003 (ip), vehicle: Klucel (hydroxypropylcellulose) (HPC)
[3] = dose: 400.0 mg/kg/injection, schedule: Q04DX003 (ip), vehicle: Klucel (hydroxypropylcellulose) (HPC)
[4] = dose: 50.0 mg/kg/injection, schedule: Q01DX009 (ip), vehicle: saline with Tween-80
[5] = dose: 200.0 mg/kg/injection, schedule: Q01DX009 (ip), vehicle: saline with Tween-80
[6] = dose: 100.0 mg/kg/injection, schedule: Q01DX009 (ip), vehicle: saline with Tween-80
[7] = dose: 400.0 mg/kg/injection, schedule: Q01DX009 (ip), vehicle: saline with Tween-80
[8] = dose: 100.0 mg/kg/injection, schedule: Q04DX003 (ip), vehicle: saline with Tween-80
[9] = dose: 200.0 mg/kg/injection, schedule: Q04DX003 (ip), vehicle: saline with Tween-80
[10] = dose: 400.0 mg/kg/injection, schedule: Q04DX003 (ip), vehicle: saline with Tween-80
[11] = dose: 50.0 mg/kg/injection, schedule: Q01DX009 (ip), vehicle: saline
[12] = dose: 100.0 mg/kg/injection, schedule: Q01DX009 (ip), vehicle: saline
[13] = dose: 100.0 mg/kg/injection, schedule: Q04DX002 (ip), vehicle: saline with Tween-80
[14] = dose: 200.0 mg/kg/injection, schedule: Q04DX002 (ip), vehicle: saline with Tween-80
[15] = dose: 400.0 mg/kg/injection, schedule: Q04DX002 (ip), vehicle: saline with Tween-80
[16] = dose: 100.0 mg/kg/injection, schedule: Q01DX001 (ip), vehicle: saline
[17] = dose: 200.0 mg/kg/injection, schedule: Q01DX001 (ip), vehicle: saline
[18] = dose: 400.0 mg/kg/injection, schedule: Q01DX001 (ip), vehicle: saline
[19] = dose: 100.0 mg/kg/injection, schedule: Q01DX001 (ip), vehicle: saline with Tween-80
[20] = dose: 200.0 mg/kg/injection, schedule: Q01DX001 (ip), vehicle: saline with Tween-80
[21] = dose: 100.0 mg/kg/injection, schedule: Q01DX001 (ip), vehicle: carboxymethylcellulose (CMC)
[22] = dose: 200.0 mg/kg/injection, schedule: Q01DX001 (ip), vehicle: carboxymethylcellulose (CMC)
[23] = dose: 400.0 mg/kg/injection, schedule: Q01DX001 (ip), vehicle: carboxymethylcellulose (CMC)

Measured: T/C

CC(C)=CCOC(N)=O
inactive: [1] 95 % of control | [2] 104 % of control | [3] 109 % of control

CC(C)(CBr)COC(=O)Nc1cccc2ccccc12
inactive: [4] 91 % of control | [5] 87 % of control

O=C(NCc1ccccc1)c1ccccc1
inactive: [1] 97 % of control | [2] 95 % of control | [3] 100 % of control

CCCCOCN(C(=O)CCl)c1c(CC)cccc1CC
inactive: [6] 101 % of control | [5] 110 % of control | [7] 89 % of control

CCCCCOc1ccc(Nc2c3ccccc3nc3ccccc23)cc1
inactive: dose: 100.0 mg/kg/injection, schedule: Q01DX001 (ip), vehicle: Klucel (hydroxypropylcellulose) (HPC) 102 % of control | dose: 200.0 mg/kg/injection, schedule: Q01DX001 (ip), vehicle: Klucel (hydroxypropylcellulose) (HPC) 111 % of control | dose: 400.0 mg/kg/injection, schedule: Q01DX001 (ip), vehicle: Klucel (hydroxypropylcellulose) (HPC) 107 % of control

CCCCCCCC(=O)Nc1cc(C(F)(F)F)ccc1Cl
inactive: [8] 92 % of control | [9] 98 % of control | [10] 87 % of control

COc1ccc(Oc2cc(CC3c4cc(OC)c(OC)cc4CCN3C)c([N+](=O)[O-])cc2OC)cc1OC (stereo not drawn)
inactive: dose: 12.5 mg/kg/injection, schedule: Q01DX009 (ip), vehicle: saline 93 % of control | dose: 25.0 mg/kg/injection, schedule: Q01DX009 (ip), vehicle: saline 102 % of control | [11] 96 % of control | [12] 108 % of control

Cc1ccccc1C1SCCCS1
inactive: [8] 101 % of control | [9] 96 % of control | [10] 107 % of control

Cc1cc(/C=C/c2ccc3cc(N(C)C)ccc3[n+]2C)c(C)n1-c1ccccc1
inactive: dose: 1.56 mg/kg/injection, schedule: Q01DX009 (ip), vehicle: saline with Tween-80 112 % of control

COc1ccc(C=NC2C(OC(C)=O)OC(COS(=O)(=O)c3ccc(C)cc3)C(OC(C)=O)C2OC(C)=O)cc1 (stereo not drawn)
inactive: [8] 101 % of control | [9] 101 % of control | [10] 93 % of control

O=C(/C=C/c1ccc(Cl)c(Cl)c1)C1CCC2CCCCC2C1 (stereo not drawn)
inactive: [6] 90 % of control | [13] 105 % of control | [5] 93 % of control | [14] 101 % of control | [7] 90 % of control | [15] 90 % of control

CCOC(=O)c1c(NC(C)=O)sc2c1CCCC2
inactive: [4] 108 % of control | [6] 108 % of control | [5] 95 % of control

CC1(C)COC(c2ccc3ccccc3c2)OC1
inactive: [1] 96 % of control | [2] 101 % of control | [3] 100 % of control

CCOC(=O)C(=CNc1cccc(C)n1)C(=O)OCC
inactive: [6] 100 % of control | [5] 102 % of control | [7] 100 % of control

CNC(C)=O
inactive: [16] 100 % of control | [12] 110 % of control | dose: 125.0 mg/kg/injection, schedule: Q01DX Z (ip), vehicle: carboxymethylcellulose (CMC) 86 % of control | [17] 97 % of control | dose: 200.0 mg/kg/injection, schedule: Q01DX009 (ip), vehicle: saline 107 % of control | [18] 95 % of control | dose: 400.0 mg/kg/injection, schedule: Q01DX009 (ip), vehicle: saline 115 % of control | dose: 500.0 mg/kg/injection, schedule: Q01DX Z (ip), vehicle: carboxymethylcellulose (CMC) 86 % of control | dose: 1000.0 mg/kg/injection, schedule: Q01DX Z (ip), vehicle: carboxymethylcellulose (CMC) 110 % of control

Cc1c(O)c([N+](=O)[O-])cc2c1OCOC2
inactive: [1] 96 % of control | [2] 102 % of control | [3] 93 % of control

O=C(Nc1ccccc1)C(CCCN1C(=O)c2ccccc2C1=O)N1C(=O)c2ccccc2C1=O (stereo not drawn)
inactive: dose: 75.0 mg/kg/injection, schedule: Q01DX001 (ip), vehicle: saline 100 % of control | dose: 150.0 mg/kg/injection, schedule: Q01DX001 (ip), vehicle: saline 104 % of control | dose: 300.0 mg/kg/injection, schedule: Q01DX001 (ip), vehicle: saline 96 % of control

COc1cc(C)ccc1I
inactive: dose: 50.0 mg/kg/injection, schedule: Q01DX001 (ip), vehicle: saline with Tween-80 100 % of control | [19] 100 % of control | [20] 100 % of control

O=C1OC(/C=C/c2ccccc2)=NC/1=C\c1ccccc1O
inactive: [13] 92 % of control | [14] 92 % of control | [15] 89 % of control

O=S(=O)(Cc1cccc(Cl)c1)c1ccccc1
inactive: dose: 100.0 mg/kg/injection, schedule: Q04DX002 (ip), vehicle: Klucel (hydroxypropylcellulose) (HPC) 96 % of control | dose: 200.0 mg/kg/injection, schedule: Q04DX002 (ip), vehicle: Klucel (hydroxypropylcellulose) (HPC) 107 % of control | dose: 400.0 mg/kg/injection, schedule: Q04DX002 (ip), vehicle: Klucel (hydroxypropylcellulose) (HPC) 104 % of control

O=C(C(Cl)Cl)N(O)c1ccccc1OCc1ccccc1
inactive: [19] 98 % of control | [20] 112 % of control | dose: 400.0 mg/kg/injection, schedule: Q01DX001 (ip), vehicle: saline with Tween-80 98 % of control

O=C(O)CSCc1cccc2ccccc12
inactive: [21] 91 % of control | [1] 98 % of control | [22] 93 % of control | [2] 94 % of control | [23] 91 % of control | [3] 105 % of control

CCOC(=O)C(C)C1=CCCc2c(C)ccc(C)c21 (stereo not drawn)
inactive: dose: 100.0 mg/kg/injection, schedule: Q01DX009 (ip), vehicle: Klucel (hydroxypropylcellulose) (HPC) 91 % of control | [1] 98 % of control | dose: 200.0 mg/kg/injection, schedule: Q01DX009 (ip), vehicle: Klucel (hydroxypropylcellulose) (HPC) 94 % of control | [2] 97 % of control | dose: 400.0 mg/kg/injection, schedule: Q01DX009 (ip), vehicle: Klucel (hydroxypropylcellulose) (HPC) 94 % of control | [3] 101 % of control

NC(=O)c1ccc(F)cc1
inactive: [21] 95 % of control | [22] 104 % of control | [23] 98 % of control

CCCCCCCCCCCCCCCCNS(=O)(=O)c1ccc2sc(SC)nc2c1
inactive: [9] 90 % of control | [10] 90 % of control

CCOC(=O)Sc1nc2ccccc2[nH]1
inactive: dose: 75.0 mg/kg/injection, schedule: Q04DX003 (ip), vehicle: saline with Tween-80 101 % of control | dose: 150.0 mg/kg/injection, schedule: Q04DX003 (ip), vehicle: saline with Tween-80 98 % of control | dose: 300.0 mg/kg/injection, schedule: Q04DX003 (ip), vehicle: saline with Tween-80 87 % of control

Cc1ccc(C[P+](c2ccccc2)(c2ccccc2)c2ccccc2)cc1
inactive: dose: 2.0 mg/kg/injection, schedule: Q01DX015 (ip), vehicle: saline 97 % of control | dose: 4.0 mg/kg/injection, schedule: Q01DX015 (ip), vehicle: saline 100 % of control | dose: 5.0 mg/kg/injection, schedule: Q01DX001 (ip), vehicle: saline 102 % of control | dose: 8.0 mg/kg/injection, schedule: Q01DX015 (ip), vehicle: saline 100 % of control | dose: 10.0 mg/kg/injection, schedule: Q01DX001 (ip), vehicle: saline 104 % of control | dose: 20.0 mg/kg/injection, schedule: Q01DX001 (ip), vehicle: saline 93 % of control | dose: 40.0 mg/kg/injection, schedule: Q01DX001 (ip), vehicle: saline 96 % of control

OCCCc1ccccc1O
inactive: dose: 50.0 mg/kg/injection, schedule: Q01DX001 (ip), vehicle: saline 102 % of control | [16] 102 % of control | [17] 94 % of control | [18] 91 % of control

O=C(O)CS(=O)(=O)Cc1ccc(Cl)cc1
inactive: [13] 95 % of control | [14] 113 % of control | [15] 95 % of control

CN(C)CCCn1c2ccccc2c2cnccc21
inactive: [11] 100 % of control | [12] 89 % of control | dose: 100.0 mg/kg/injection, schedule: Q04DX003 (ip), vehicle: saline 97 % of control

Cc1cc(C)c(O)c(C)c1.[Hg]
inactive: dose: 12.5 mg/kg/injection, schedule: Q01DX001 (ip), vehicle: Klucel (hydroxypropylcellulose) (HPC) 87 % of control
